# From patent US5710244A, “Derivatized calcitonins” (priority 1993, dated 1998)
# Tests used:
# [1] = target: T1, recombinant human calcitonin receptor (Homo sapiens, UniProt P30988); assay: CRE-linked luciferase (cyclic AMP) induction in BHK/KZ10-20-48 cells expressing recombinant human calcitonin receptor; format: cell-based; details: for % SCT EC50, Human CT receptor: EC50 as % of salmon calcitonin (SCT) EC50, CRE-luciferase, BHK/KZ10-20-48 cells, 4 h induction; for activity / potency compared with human calcitonin: text summary of the Table (hamster and human CT receptor)
# T1 construct: expressed in transfected cells; host or cells: BHK/KZ10-20-48 (BHK cells carrying a CRE-luciferase reporter) transfected with pHOLLEX (ATCC 69067)
# T1 sequence (P30988 25-474): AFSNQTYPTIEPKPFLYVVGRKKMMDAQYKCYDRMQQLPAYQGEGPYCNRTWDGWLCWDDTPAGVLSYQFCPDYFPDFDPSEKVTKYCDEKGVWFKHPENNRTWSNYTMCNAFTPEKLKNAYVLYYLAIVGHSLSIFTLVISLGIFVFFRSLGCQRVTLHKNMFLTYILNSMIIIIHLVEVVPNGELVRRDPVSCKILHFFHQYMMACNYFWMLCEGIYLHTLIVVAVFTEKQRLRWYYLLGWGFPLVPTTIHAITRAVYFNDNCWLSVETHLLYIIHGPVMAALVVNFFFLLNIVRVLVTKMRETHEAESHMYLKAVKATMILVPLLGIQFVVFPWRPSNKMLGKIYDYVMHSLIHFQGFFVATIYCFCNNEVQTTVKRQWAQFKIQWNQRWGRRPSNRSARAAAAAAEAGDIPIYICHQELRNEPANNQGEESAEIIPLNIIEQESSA
# Description: BHK/KZ10-20-48 is a BHK cell line transfected with a plasmid containing a luciferase gene whose expression is dependent upon a cyclic AMP response element (CRE), which induces expression of downstream coding sequences in the presence of cyclic AMP. […] The vector without the calcitonin receptor was used to transfect the cell line BHK/KZ10-20-48 for a negative control. The transfectants were grown in a selective growth medium (Dulbecco's Modified Eagle Medium (DMEM) with 5% serum) containing both 500 μg/ml G418-neomycin and 250 nM methotrexate.
# Cells expressing the calcitonin receptor were assayed in triplicate for the induction of the CRE-linked luciferase response to salmon calcitonin (SCT) and derivatized calcitonins at concentrations ranging from 10^-13 M to 10^-6 M. MICROLITE flat bottom tissue culture plates (Baxter Scientific Products, Chicago, Ill.) were set up such that each well contained 2×10^4 cells in 100 μl of selection media, and the cells were grown overnight. […] Induction was initiated by removing old medium from the wells and adding 100 μl of fresh growth medium and 100 μl of either 2X solution in triplicate sample wells. Uninduced luciferase levels were determined in triplicate wells to which 100 μl of DMEM containing 10% fetal calf serum was added. The plates were incubated for four hours at 37° C., 5% CO2 to allow induction of luciferase. Following induction, the media were removed, and the wells were washed once with 200 μl/well PBS. After the wash, 20 μl of a 1:5 dilution (in sterile water) of the stock Cell Culture Lysis Reagent (Luciferase Assay System, Promega Corp., Madison, Wis.) was added to each well, and the plates were incubated for 15 minutes at room temperature. The plates were transferred to a Labsystems Luminoskan microtiter luminometer (Labsystems Inc., Morton Grove, Ill.) which added 40 μl of Luciferase Assay Substrate (Luciferase Assay System, Promega), mixed the reaction for three seconds and integrated the luciferase signal for two seconds per well. The fold induction of luciferase for each compound was calculated as follows:
# [2] = test system: endogenous hamster calcitonin receptor; assay: CRE-linked luciferase (cyclic AMP) induction in BHK cells expressing endogenous hamster calcitonin receptor; format: cell-based; details: EC50 as % of salmon calcitonin (SCT) EC50; CRE-luciferase, BHK cells, 4 h induction
# Description: A BHK cell line expressing the endogenous hamster calcitonin receptor was transfected with plasmid KZ10-20-48 to provide the CRE-inducible luciferase receptor described above. The transfected cells were cultured in selective growth medium containing both 500 μg/mL G418-neomycin and 250 nM methotrexate.
# Cells expressing the calcitonin receptor were assayed in triplicate for the induction of the CRE-linked luciferase response to salmon calcitonin (SCT) and derivatized calcitonins at concentrations ranging from 10^-13 M to 10^-6 M. MICROLITE flat bottom tissue culture plates (Baxter Scientific Products, Chicago, Ill.) were set up such that each well contained 2×10^4 cells in 100 μl of selection media, and the cells were grown overnight. SCT and GF43 were prepared at 2X the final assay concentration to give 10^-13 to 10^-6 M in growth medium. Induction was initiated by removing old medium from the wells and adding 100 μl of fresh growth medium and 100 μl of either 2X solution in triplicate sample wells. Uninduced luciferase levels were determined in triplicate wells to which 100 μl of DMEM containing 10% fetal calf serum was added. The plates were incubated for four hours at 37° C., 5% CO2 to allow induction of luciferase. Following induction, the media were removed, and the wells were washed once with 200 μl/well PBS. After the wash, 20 μl of a 1:5 dilution (in sterile water) of the stock Cell Culture Lysis Reagent (Luciferase Assay System, Promega Corp., Madison, Wis.) was added to each well, and the plates were incubated for 15 minutes at room temperature. The plates were transferred to a Labsystems Luminoskan microtiter luminometer (Labsystems Inc., Morton Grove, Ill.) which added 40 μl of Luciferase Assay Substrate (Luciferase Assay System, Promega), mixed the reaction for three seconds and integrated the luciferase signal for two seconds per well. The fold induction of luciferase for each compound was calculated as follows:
# Fold induction=Induced signal-Uninduced signal Uninduced signal
# serum calcium in mice = assay: In vivo effect on serum calcium levels in mice; details: Swiss-Webster male mice, single subcutaneous injection, 100 ng/ml, 1 μg/ml, 10 μg/ml; 0, 1 and 4 hours; FIGS. 1 and 2
# Description: The biological activity of bipyridine-calcitonin in vivo was measured as the ability of BP4,4 -CT to lower serum calcium in mice as compared to the action of salmon calcitonin. Six-week old Swiss-Webster male mice (12 to 18 grams) were given single, subcutaneous injections of BP4,4 -CT, salmon calcitonin or vehicle. Blood samples for serum calcium measurements were collected from orbital sinus punctures at timed intervals of 0, 1 and 4 hours after injection. Serum calcium was analyzed using a Dacos Excel Analyzer (Coulter Electronics Company, Hialeah, Fla.). The compounds were given at the following doses with eight mice randomly assigned to each of the following groups: […]
molecule,measurement,setting,value
CC(C)C[C@H](NC(=O)[C@H](CCCCN)NC(=O)CNC(=O)[C@H](CC(C)C)NC(=O)[C@@H](NC(=O)[C@@H]1CSSC[C@H](NC(=O)c2ccccn2)C(=O)N[C@@H](CO)C(=O)N[C@@H](CC(N)=O)C(=O)N[C@@H](CC(C)C)C(=O)N[C@@H](CO)C(=O)N[C@@H]([C@@H](C)O)C(=O)N1)C(C)C)C(=O)N[C@@H](CO)C(=O)N[C@@H](CCC(N)=O)C(=O)N[C@@H](CCC(=O)O)C(=O)N[C@@H](CC(C)C)C(=O)N[C@@H](Cc1c[nH]cn1)C(=O)N[C@@H](CCCCN)C(=O)N[C@@H](CC(C)C)C(=O)N[C@@H](CCC(N)=O)C(=O)N[C@H](C(=O)N[C@@H](Cc1ccc(O)cc1)C(=O)N1CCC[C@H]1C(=O)N[C@@H](CCCNC(=N)N)C(=O)N[C@H](C(=O)N[C@@H](CC(N)=O)C(=O)N[C@H](C(=O)NCC(=O)N[C@@H](CO)C(=O)NCC(=O)N[C@H](C(=O)N1CCC[C@H]1C(N)=O)[C@@H](C)O)[C@@H](C)O)[C@@H](C)O)[C@@H](C)O [ZP-6],"% SCT EC50, Human CT receptor",[1],140%
ZP-9: DL-pipecolinic acid modified salmon calcitonin,"% SCT EC50, Hamster CT receptor",[2],147%
same,activity / potency compared with human calcitonin,[1],greater activity than human calcitonin
"CC(C)C[C@H](NC(=O)[C@H](CCCCN)NC(=O)CNC(=O)[C@H](CC(C)C)NC(=O)[C@@H](NC(=O)[C@@H]1CSSC[C@H](N)C(=O)N[C@@H](CO)C(=O)N[C@@H](CC(N)=O)C(=O)N[C@@H](CC(C)C)C(=O)N[C@@H](CO)C(=O)N[C@@H]([C@@H](C)O)C(=O)N1)C(C)C)C(=O)N[C@@H](CO)C(=O)N[C@@H](CCC(N)=O)C(=O)N[C@@H](CCC(=O)O)C(=O)N[C@@H](CC(C)C)C(=O)N[C@@H](Cc1c[nH]cn1)C(=O)N[C@@H](CCCCN)C(=O)N[C@@H](CC(C)C)C(=O)N[C@@H](CCC(N)=O)C(=O)N[C@H](C(=O)N[C@@H](Cc1ccc(O)cc1)C(=O)N1CCC[C@H]1C(=O)N[C@@H](CCCNC(=N)N)C(=O)N[C@H](C(=O)N[C@@H](CC(N)=O)C(=O)N[C@H](C(=O)NCC(=O)N[C@@H](CO)C(=O)NCC(=O)N[C@H](C(=O)N1CCC[C@H]1C(N)=O)[C@@H](C)O)[C@@H](C)O)[C@@H](C)O)[C@@H](C)O [salmon calcitonin, reference compound]",decrease of serum calcium levels,serum calcium in mice,equally decreased serum calcium levels in a dose-dependent manner
ZP-8: isonipecotic acid modified salmon calcitonin,"% SCT EC50, Hamster CT receptor",[2],106%
same,activity / potency compared with human calcitonin,[1],greater activity than human calcitonin
"ZP-1: salmon calcitonin N-terminally modified with 2,2'-bipyridine-4,4'-dicarboxylic acid","% SCT EC50, Hamster CT receptor",[2],73%
same,decrease of serum calcium levels,serum calcium in mice,equally decreased serum calcium levels in a dose-dependent manner
CC(C)C[C@H](NC(=O)[C@H](CCCCN)NC(=O)CNC(=O)[C@H](CC(C)C)NC(=O)[C@@H](NC(=O)[C@@H]1CSSC[C@H](NC(=O)c2cccnc2)C(=O)N[C@@H](CO)C(=O)N[C@@H](CC(N)=O)C(=O)N[C@@H](CC(C)C)C(=O)N[C@@H](CO)C(=O)N[C@@H]([C@@H](C)O)C(=O)N1)C(C)C)C(=O)N[C@@H](CO)C(=O)N[C@@H](CCC(N)=O)C(=O)N[C@@H](CCC(=O)O)C(=O)N[C@@H](CC(C)C)C(=O)N[C@@H](Cc1c[nH]cn1)C(=O)N[C@@H](CCCCN)C(=O)N[C@@H](CC(C)C)C(=O)N[C@@H](CCC(N)=O)C(=O)N[C@H](C(=O)N[C@@H](Cc1ccc(O)cc1)C(=O)N1CCC[C@H]1C(=O)N[C@@H](CCCNC(=N)N)C(=O)N[C@H](C(=O)N[C@@H](CC(N)=O)C(=O)N[C@H](C(=O)NCC(=O)N[C@@H](CO)C(=O)NCC(=O)N[C@H](C(=O)N1CCC[C@H]1C(N)=O)[C@@H](C)O)[C@@H](C)O)[C@@H](C)O)[C@@H](C)O [ZP-5],"% SCT EC50, Human CT receptor",[1],112%
